From article PMC4929710, “Specificity and mechanism of action of alpha-helical membrane-active peptides interacting with model and biological membranes by single-molecule force spectroscopy” (Scientific Reports, 2016)

Columns and labels:
[1] = test system: chicken erythrocyte membranes; assay: Single-molecule force spectroscopy (AFM); type: binding; details: for Unbinding force Chicken erythrocyte: RMS ± SD, N-terminal Cys peptide on AFM tip via PEG linker
Source text: Based on the above results, five selected peptides of V13L, A12L/A20L, V13K, V13E, and L6A/L17A, with different hydrophobicity and charges were used to examine the interaction probabilities and forces between peptides and membranes, both on the lipid model membranes and on the biological membranes by SMFS based on AFM, respectively. A cysteine residue was covalently introduced to the N-terminus of peptides and provided a free sulfhydryl group to modify the tips of the AFM. A PEG linker was used since each heterobifunctional PEG–NHS linker (approximately 20 nm) can only covalently connect with a single peptide molecule, which guarantees a single-molecule interaction between MAPs and biological membranes in real time[19]. If an AFM tip was functionalized with two or more peptides, where several peaks were recorded. In the reports, data with two peaks were not collected and calculated. For one force–distance cycle, one peptide-functionalized AFM tip approached the model and biological membranes right on the top, and the subsequent tip was withdrawn from the cell membranes to retrace the process. […] In addition, blocking experiment was used to test the specificity of these force events. As the electrostatic attraction is one important reason for peptides approaching model membranes and biological membranes, the Tris-HCl buffer including plenty amino groups[20] was injected into the working chamber and inhibits the interactions between MAPs and model membranes/biological membranes. […] The unbinding forces of V13L against different model membranes and biological membranes with the loading rate of 1 × 10^5 pN s^−1 are shown in Fig. 3c,f–h,j–l.
The AFM tip was first washed with concentrated sulfuric acid and hydrogen peroxide (3:1, v:v). The tip was dried using ozone (O3) for 15 min and dried overnight in a dryer. The tip was then modified with APTES under an argon atmosphere and the peptide connected with a PEG–NHS linker. Finally, the AFM tip linked with the peptide was washed three times in PBS and kept at 4 °C. A 500-μL LUV suspension was deposited on Lys coated glass and the LUVs were absorbed on the surface for 1 h at 65 °C [9][29]. A. laidlawii was deposited on poly-L-lysine coated glass and absorbed for 1 h at 37 °C [30]. The 3T3-L1 and HeLa cells were cultured on glass slides in Dulbecco’s modified Eagle’s medium (DMEM). Before performing force spectroscopy experiments, the cells were washed with fresh DMEM three times to remove the cell metabolites. Isolation of chicken erythrocytes was carried out at room temperature. Then the erythrocytes were washed three times in 2 mL PBS buffer by centrifuge (1,000 rpm) and resuspended in PBS buffer. 200 μL erythrocyte suspension were deposited onto poly-L-lysine coated glass for 20 min[10]. The force measurements of MAPs with LUVs mimicking membranes and living cells were performed using the AFM5500 (Agilent Technologies, Chandler, AZ, USA)[19].

[2] = RP-HPLC retention time (peptide hydrophobicity); type: physicochemical; details: used as measure of peptide hydrophobicity
Description: All peptides were synthesized by solid-phase peptide synthesis using Fmoc (9-fluorenyl-methoxycar-bonyl) chemistry and rink amide 4-methylbenzhydrylamine resin (MBHA resin; 0.8 mmol/g), as described previously. The crude peptides were purified on a LC-6A preparative reversed-phase high performance liquid chromatography (RP-HPLC, Shimadzu, Kyoto, Japan) using a Zorbax 300 SB-C8 column (250 × 9.4 mm inner diameter, […] particle size, 300 Å pore size), as described previously. The purity of the peptides was characterized by analytical RP-HPLC, mass spectrometry, and amino acid analysis.

PC/PG (7:3 w/w) LUVs = assay: Tryptophan fluorescence with LUVs; type: binding; details: PC/PG (7:3 w/w) LUVs versus HEPES buffer, 25 °C
Source text: In order to investigate the interaction between peptides and difference types of cell membranes, three different LUVs were used to mimic a prokaryotic cell membrane (PC/PG), a normal eukaryotic cell membrane (PC/Chol), and a cancer cell membrane (PC/SM/PE/PS/Chol). Tryptophan residue in the peptide sequence was used as a fluorescent probe to examine the interaction of peptides with model membranes. […] For example, in the PC/PG (7:3 w/w) anionic prokaryotic mimicking model membrane, peptides V13L and A12L/A20L had the strongest hydrophobicity with blue shift values of approximately 37 nm and 38 nm, respectively. Conversely, peptide V13E with a negative charge of glutamic acid residue, and peptide L6A/L17A with the lowest hydrophobicity had blue shift values of approximately 18 nm and 17 nm, respectively. […] In addition, within PC/SM/PE/PS/Chol (4.35:4.35:1:0.3:1 w/w) as a cancer-mimicking model membrane, the same results could be obtained in that peptide hydrophobicity correlates with anticancer activity and the blue shift values of peptides.
In accordance with previously described methods, LUVs were prepared with PC/PG (7:3 w/w), PC/Chol (8:1 w/w), and PC/SM/PE/PS/Chol (4.35:4.35:1:0.3:1 w/w) to mimic prokaryotic cell, […], membranes, respectively. Lipids using the freeze-thaw method as described previously, followed by extrusion through […] double-stacked nuclepore filters using an Mini-Extruder (Avanti Polar Lipids, Inc.)[11][27].
Three kinds of LUVs were prepared and cultured in HEPES buffer (pH 7.4, 10 mM HEPES, 150 mM NaCl) and the molar concentration was adjusted to 100 μM. A total of 14 μL of 100 μM MAPs was mixed with 686 μL of 100 μM liposomes at 25 °C for 10 min. A Shimadzu RF-5301PC, (excitation wavelength of […], emission wavelength of 300–450 nm) was used to measure the tryptophan fluorescence. Potassium iodide (KI) as a quencher was added to the previous reaction system for a final concentration of 0.02–0.08 M, respectively. The experimental data were plotted according to the Stern–Volmer equation F0/F = 1 + Ksv[Q], where F0 and F are the fluorescence intensity in the absence or presence of a quencher at concentration [Q], respectively, and Ksv is the Stern–Volmer quenching constant.

bacteria = details: text summary of Table 1, strain not specified
Description: Minimal inhibitory concentrations (MICs) were used to represent the antimicrobial activity of MAPs and were determined by the standard microtiter dilution method. Four bacterial strains including two gram-negative bacterial strains of E. coli and P. aeruginosa, and two gram-positive bacterial strains of S. aureus and S. epidermidis were selected as representative prokaryotes. A single bacterial colony was picked and cultured in Mueller–Hinton (MH) medium for 18–20 h. The bacterial solution was diluted in the same medium for a final inoculum of 5 × 10^5 colony-forming units (CFU)/mL and placed in 96-well plates with 90 μL per well. Then, 10 μL of peptides was added. MICs were determined as the lowest peptide concentration that inhibited bacterial growth after incubation for 24 h at 37 °C. All assays were repeated in triplicate. GM is the geometric mean of MIC values from two gram-positive bacteria strains or two gram-negative bacteria strains in this table.

Compound | Unbinding force Chicken erythrocyte [1] [pN] | tR (RP-HPLC retention time) [2] [min] | PC/PG Blue shift (PC/PG (7:3 w/w) LUVs) [nm] | MIC value (bacteria) | Interaction probability of the force signal ([1]; chicken erythrocyte membranes, out of about 1000 force cycles)
CC[C@H](C)[C@H](NC(=O)[C@H](C)NC(=O)[C@H](CCCCN)NC(=O)[C@H](CC(C)C)NC(=O)[C@H](C)NC(=O)[C@@H](NC(=O)[C@H](Cc1cnc[nH]1)NC(=O)[C@H](CC(C)C)NC(=O)[C@@H](NC(=O)[C@@H](NC(=O)[C@H](CCCCN)NC(=O)[C@H](CCCCN)NC(=O)[C@H](C)NC(=O)[C@H](CO)NC(=O)[C@H](CCCCN)NC(=O)[C@H](Cc1ccccc1)NC(=O)[C@@H](NC(=O)[C@H](CCCCN)NC(=O)[C@H](CC(C)C)NC(=O)[C@H](Cc1ccccc1)NC(=O)[C@H](CO)NC(=O)[C@H](CCCCN)NC(=O)[C@H](Cc1c[nH]c2ccccc12)NC(=O)[C@H](CCCCN)NC(C)=O)[C@@H](C)O)[C@@H](C)O)C(C)C)[C@@H](C)O)C(=O)N[C@@H](CO)C(=O)N[C@@H](CO)C(N)=O [Peptide V13K] | 87 ± 39 | 38.790 | 28 |  | 
Ac-KWKSFAKTFKSAKKTVAHTALKAISS-NH2 [L6A/L17A] | 78 ± 39 | 32.210 | ~17 | approximately 125 μM | 
Ac-KWKSFLKTFKSAEKTVLHTALKAISS-NH2 [Peptide V13E] | 59 ± 35 | 44.290 |  |  | 
Ac-KWKSFLKTFKSALKTVLHTALKAISS-NH2 [Peptide V13L] | 76 ± 34 | 53.177 |  |  | about 18%
